Test results from patent publication US20170304002A1, “ELECTROMANIPULATION OF PROTEINS USING NANOSECOND PULSED ELECTRIC FIELDS” (Old Dominion University, priority 2014, published 2017).

Test system: Jurkat A3 cells
Assay: nsPEF-induced dissipation of mitochondria membrane potential (ΔΨm), TMRE flow cytometry
Type: cell-based
Description: Wildtype Jurkat T-lymphocytes (clone A3) were obtained from ATCC (Manassas, Va.) and cultured in RPMI 1640 medium (ATCC) including about 10% fetal bovine serum (FBS) (Atlanta Biologist). N1-S1 HCC cells were obtained from ATCC and cultured in Iscove's Modified Delbecco's Medium including FBS. Both cell lines were maintained in media including about 1% L-glutamine and about 1% penicillin and streptomycin. Cells were treated in cuvettes in cell culture media with nsPEFs using pulse generators, such as, for example as described in Transient features in nanosecond pulsed electric fields differentially modulate mitochondria and viability, PLoS One 7 (2012).
Loss in ΔΨm was determined by staining cells with either 2 μM JC-1 (5′,6, 6′-tetrachloro-1,1′,3,3′-tetraethylbenzimidazole-carbocyanideiodine, Molecular Probes, Eugene, Oreg., USA), where JC-1 changes from red to green when ΔΨm decreases (data not shown) or with 200 […] TMRE (tetramethylrhodamine ethyl ester, Immunochemistry Technologies LLC, Bloomington, Minn.), where TMRE red emissions decrease when ΔΨm decreases. To determine effects of Ca^2+ on ΔΨm, cells were pre-incubated with or without 20 μM BAPTA-AM and/or 5 mM EGTA for about 30 min before nsPEF treatment. The ΔΨm was determined about 10 min after treatment with nsPEFs. The TMRE red fluorescence was determined (10,000 cells) on a Becton Dickinson FacsAria flow cytometer. Although data shown are with TMRE, near identical results were obtained with JC-1. […]
Jurkat cells (A3 clone) were pre-incubated with TMRE (200 nM) for 20 min. […] Cell were then analyzed by flow cytometry 10 min after treatment for red (TMRE, ΔΨm) fluorescent and expressed as percent cells showing fluorescence (Y-axis) at each electric field strength (X-axis). In the presence of 3 mM Ca^2+ (absence of EGTA) there was an electric field-dependent decrease in cells expressing a high ΔΨm as indicated by decreases in TMRE fluorescence. […] Statistical significance was determined by the paired Student's t-test (p<0.05; n=3). […]

SMILES	chelation of Ca2+ influx from the extracellular environment by BAPTA-AM alone (BAPTA-AM 20 μM alone, data not shown)	effect on nsPEF-induced loss of ΔΨm (percent cells showing TMRE fluorescence) (30 min pre-incubation, EGTA 5 mM, BAPTA-AM 20 μM, ten 60 ns pulses, all electric fields up to 60 kV/cm, 10 min after treatment)	block of nsPEF-induced loss of ΔΨm at high electric field (electric field ≧40 kV/cm, EGTA 5 mM, BAPTA-AM 20 μM, ten 60 ns pulses)
CC(=O)OCOC(=O)CN(CC(=O)OCOC(C)=O)c1ccccc1OCCOc1ccccc1N(CC(=O)OCOC(C)=O)CC(=O)OCOC(C)=O [BAPTA-AM]	not sufficient to chelate influxes of Ca^2+ from the extracellular environment	–	–
O=C(O)CN(CCOCCOCCN(CC(=O)O)CC(=O)O)CC(=O)O [EGTA]	–	prevented losses in ΔΨm	neither EGTA nor EGTA/BAPTA completely blocked loss of ΔΨm
